In patent US9750718B2, “Methods of treating hepatic fibrosis and associated diseases by regulating Rev-ERB activity” (The Charlotte-Mecklenburg Hospital Authority, priority 2012, dated 2017):

Key:
[1] = test system: CCl4-induced liver fibrosis; assay: CCl4-induced liver fibrosis mouse model (herovici histology, qRT-PCR of whole liver); format: in vivo
Description: Male C57BL/6 mice (age 9 weeks) were injected intraperitoneally with carbon tetrachloride (CCl4) in sterile olive oil (1 μl CCl4/g body weight) twice a week for 5 weeks. Three weeks after initiation of CCl4 treatment, SR9009 (EMD Millipore, dissolved in DMSO) was administered 5 times a week at a dose of 0.1 mg/g body weight for two weeks. Mice were sacrificed 72 hours after the last dose of SR9009 and livers were harvested for further analysis. For histology studies, livers of the right and left lobes were fixed in 10% formalin, embedded in paraffin, sectioned, and stained with herovici to detect collagen deposition. For gene expression studies, total RNA was extracted from whole liver homogenates, and qRT-PCR performed to detect various markers, including αSMA, Col1α1, Col1α2, tenascin C, and connective tissue growth factor.

Rev-erbα [2] = assay: Rev-erbα protein expression in HSCs under pro- and anti-fibrogenic factors (Western blot); format: cell-based, rat
Description: (§1) Primary rat HSCs were isolated by pronase/collagenase perfusion digestion followed by density gradient centrifugation with Optiprep. Media was replaced every other day to replenish Rev-erbα modulator SR6452, which was present at a 10 μM concentration. Cells were treated with MDIR mixture (IBMX, dexamethasone, insulin, rosiglitazone), TGFβ, or DMSO (vehicle). Some experiments were performed with the human HSC cell line, LX-2.
FIG. 2B show results from primary HSCs that were treated with pro-fibrogenic factor TGFβ (5 ng/ml) or myosin inhibitors blebbistatin (Bleb) or BDM (2,3-Butanedione monoxime) for 48 hrs. Cells were harvested for protein and Western blots performed to detect Rev-erbα.

primary rat HSCs [3] = assay: Adipogenesis in culture-activated primary HSCs (Oil Red O staining, qRT-PCR of adipogenic factors); format: cell-based
Description: (§2) A series of experiments were conducted to determine the functional role of Rev-erbα in HSC transdifferentiation. In these experiments, culture-activated primary rat HSCs and human LX-2 cells were used. To determine the effect of Rev-erbα on HSC transdifferentiation and contraction, cells were treated with a specific synthetic modulator, SR6452 (10 μM). mRNA and protein expression were determined by qRT-PCR and Western blot, respectively. Changes in cellular morphology, Rev-erb expression/localization and αSMA expression were observed by confocal microscopy. Additionally, cell contractility was assessed.
as §1
(§3) mRNA expression was normalized to 18S rRNA.
FIGS. 3A-B illustrates that modulation of Rev-erbα activity can regulate adipogenesis. Primary HSCs were culture-activated for 5 days (A) or 15 days (B). Cells were treated with vehicle (DMSO, open bar), or the Rev-erbα modulator SR6452 ([…], purple bar) for the days indicated. The medium was changed every 48 hrs. FIG. 3A provides a chart summarizing the amount of PPARγ, SREBP1, and Lep mRNA on day 5.

primary rat HSCs [4] = assay: ECM gene expression by qRT-PCR in primary HSCs; format: cell-based; conditions: SR6452 10 μM, day Q to day 5 or day 9 to day 12
Description: as §2, §1, §3
FIGS. 4A-B illustrate that the Rev-erbα modulator SR6452 can suppress/decrease ECM gene expression. Primary rat HSCs were cultured from quiescence (day Q) to day 5 (FIG. 4A) or from day 9 to day 12 (FIG. 4B) and treated with Rev-erbα modulator SR6452. qRT-PCR was performed to determine ECM gene expression. DMSO was used as the vehicle control, while SR6452 was used as the Rev-erbα modulator.

primary rat HSCs [5] = assay: Myofibroblast marker expression and morphology (qRT-PCR, αSMA immunocytochemistry); format: cell-based
Description: as §2, §3
Prior to transfection, culture-activated HSCs (for varying days of activation) were seeded onto glass coverslips. Cells were fixed with 4% paraformaldehyde and stained with anti-αSMA antibody, a marker of HSC activation. Cells were imaged using a Zeiss confocal microscope. The fluorescence indicates Rev-erb or αSMA expression.
(§4) FIGS. 5A-D illustrate that Rev-erbα modulator SR6452 can regulate myofibroblast marker expression and HSC contraction. Primary rat HSCs were cultured from quiescence (day Q) to day 5 (FIG. 5A) or from day 9 to day 12 (FIG. 5B) and treated with Rev-erbα modulator SR6452. qRT-PCR was performed for myofibroblast gene expression. Samples were normalized with 18S rRNA. […] HSCs (day 5) were embedded in a collagen gel and treated as indicated for 48 hrs. Gels were then released from plastic surface and contraction monitored after 72 hrs. Materials used were DMSO (vehicle control), SR6452, Rev-erb modulator; and BDM (2,3-Butanedione monoxime), myosin inhibitor.

primary rat HSCs [6] = assay: Cell contraction assay (collagen gel); format: cell-based; conditions: HSCs embedded in collagen gel, treated 48 hrs, contraction monitored after 72 hrs
Description: Primary rat HSCs (day 9, 2-5×10^6 cells/ml) were embedded in a collagen lattice per manufacturer's instructions. Cells were treated with synthetic Rev-erbα ligand SR6452. Collagen gel size change was imaged using a BioSpectrum Imaging System.
as §4

LX-2 cells = assay: Response of LX-2 cells to Rev-erb agonist, with or without Rev-erbα overexpression; format: cell-based, human
Description: Primary rat HSCs were isolated via standard pronase-collagenase digestion and subsequent density gradient centrifugation. LX-2 cells were treated with adipogenic mixture (MDI), 5 ng/ml of recombinant transforming growth factor-beta (TGFβ), or plated on Matrigel™ (growth condition which promotes HSC quiescence) for various time points. Gene expression was determined by RealTime PCR and Western blot. Immunocytochemistry followed by confocal microscopy was used to determine sub-cellular localization. A Rev-erb DNA binding domain (DBD) mutant was produced by standard molecular cloning. LX-2 cells were transfected with expression vectors or controls using Fugene®HD.

Rev-erbα [7] = target: T1, Rev-erbα (Homo sapiens, UniProt P20393); conditions: cited from earlier work
T1 sequence (P20393 1-614): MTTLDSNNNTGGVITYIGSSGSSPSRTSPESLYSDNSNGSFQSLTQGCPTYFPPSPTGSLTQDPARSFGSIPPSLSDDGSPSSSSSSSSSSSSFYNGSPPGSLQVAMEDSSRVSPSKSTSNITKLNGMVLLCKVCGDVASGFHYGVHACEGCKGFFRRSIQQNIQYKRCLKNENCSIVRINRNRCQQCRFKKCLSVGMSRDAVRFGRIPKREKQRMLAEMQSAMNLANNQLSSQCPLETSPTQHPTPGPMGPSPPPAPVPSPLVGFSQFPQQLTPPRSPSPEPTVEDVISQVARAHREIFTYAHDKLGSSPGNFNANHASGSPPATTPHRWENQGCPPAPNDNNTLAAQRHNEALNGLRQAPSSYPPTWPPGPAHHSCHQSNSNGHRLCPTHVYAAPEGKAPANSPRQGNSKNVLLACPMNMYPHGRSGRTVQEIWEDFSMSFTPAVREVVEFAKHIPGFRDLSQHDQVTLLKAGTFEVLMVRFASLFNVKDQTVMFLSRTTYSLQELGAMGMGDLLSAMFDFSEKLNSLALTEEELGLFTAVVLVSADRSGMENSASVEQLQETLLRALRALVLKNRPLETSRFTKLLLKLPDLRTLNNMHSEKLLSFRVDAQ

[8] = qRT-PCR whole liver, CCl4 + SR9009 0.1 mg/g
[9] = SR6452 10 μM, mRNA by qRT-PCR, day 5

CCOC(=O)N1CCC(CN(Cc2ccc(Cl)cc2)Cc2ccc([N+](=O)[O-])s2)C1 (stereo not shown) [SR9009]
liver architecture and collagen deposition (herovici stain) ([1]; C57BL/6 mice, CCl4 5 weeks, SR9009 0.1 mg/g 5 times a week for two weeks): essentially normal liver architecture and amount of collagen deposition | CCl4-mediated liver fibrosis ([1]; mice, histological and expression data): effective reverses | Col1α1 expression in liver [1, 8]: down to almost normal levels | Col1α2 expression in liver [1, 8]: down to almost normal levels | αSMA expression in liver [1, 8]: down to almost normal levels

TGFβ
cytoplasmic Rev-erbα (Rev-erbα [2]; TGFβ treatment): stabilized | Rev-erbα protein expression (Rev-erbα [2]; Western blot, TGFβ 5 ng/ml 48 hrs, MDIR or matrigel through day 4): increased

CC(C)(C)OC(=O)CN(Cc1ccc(Cl)cc1)Cc1ccc([N+](=O)[O-])s1 [SR6452, 1,1-Dimethylethyl-N-[(4-chlorophenyl)methyl]-N-[(5-nitro-2-thienyl)methyl]) glycinate]
lipid content in activated HSCs (primary rat HSCs [3]; SR6452 10 μM, Oil Red O, day 15): increased | PPARγ expression (primary rat HSCs [3]; [9]): up-regulated | SREBP1 expression (primary rat HSCs [3]; [9]): up-regulated | HSC adipogenesis (primary rat HSCs [3]; exposure of quiescent HSCs): promoted | Type I collagen expression (primary rat HSCs [4]): significantly down-regulated | fibronectin expression (primary rat HSCs [4]): significantly down-regulated | tenascin C expression (primary rat HSCs [4]): significantly down-regulated | major regulatory and structural genes controlling myofibroblast contraction (primary rat HSCs [5]; SR6452 10 μM, qRT-PCR normalized to 18S rRNA): repressive effects | cell morphology (primary rat HSCs [5]; day 9 HSCs treated 72 hrs, αSMA/DAPI immunocytochemistry): slightly rounded/folded cytoplasm with disoriented actin fibers | effect on HSC activation (primary rat HSCs [5]; overall conclusion of Example 1): suppressive effect | HSC contraction (primary rat HSCs [6]): impeded | response to Rev-erb agonist (LX-2 cells; LX-2 cells overexpressing Rev-erbα): sensitive | response to Rev-erb agonist (LX-2 cells; LX-2 cells without Rev-erbα overexpression): non-responsive | recruitment of nuclear receptor co-repressor (NCoR) peptide to Rev-erbα (Rev-erbα [7]): enhances recruitment | EC50 (Rev-erbα [7]; read-out: EC50 (synthetic Rev-erb agonist)): 0.25 µM
